Read-outs that look alike come from different tables or passages of the source.
Key:
dopamine transporter = molecular target: T1, dopamine transporter (Macaca fascicularis, UniProt Q9GJT6); test: Dopamine transporter assay: inhibition of {3H}WIN 35,428 binding in caudate-putamen membranes; parameters: species or system rhesus or cynomolgus monkey; conditions: for SERT/DAT: selectivity ratio of IC50 values; for IC50: {3H}WIN 35,428 binding, monkey caudate-putamen
T1 construct: The caudate-putamen was dissected from coronal slices and yielded 1.4±0.4 g tissue; Membranes were prepared as described previously; from tissue; host or cells: caudate-putamen membranes of adult cynomolgus and rhesus monkeys

serotonin transporter = molecular target: T2, serotonin transporter (Macaca mulatta, UniProt Q9MYX0); test: Serotonin transporter assay: inhibition of {3H}citalopram binding in caudate-putamen membranes; parameters: species or system rhesus or cynomolgus monkey
T2 construct: The serotonin transporter was assayed in caudate-putamen membranes using conditions similar to those for the dopamine transporter; from tissue; host or cells: caudate-putamen membranes of adult cynomolgus and rhesus monkeys

DAT = conditions: literature value, cited from earlier work; for IC50: binding to the DAT
[1] = Table 2, read-out: IC50 (nM) DAT
[2] = Table 2, monkey caudate-putamen, read-out: IC50 (nM) SERT
[3] = IC50 (nM) SERT, Table 2, monkey caudate-putamen

T2 sequence (Q9MYX0 whole entry): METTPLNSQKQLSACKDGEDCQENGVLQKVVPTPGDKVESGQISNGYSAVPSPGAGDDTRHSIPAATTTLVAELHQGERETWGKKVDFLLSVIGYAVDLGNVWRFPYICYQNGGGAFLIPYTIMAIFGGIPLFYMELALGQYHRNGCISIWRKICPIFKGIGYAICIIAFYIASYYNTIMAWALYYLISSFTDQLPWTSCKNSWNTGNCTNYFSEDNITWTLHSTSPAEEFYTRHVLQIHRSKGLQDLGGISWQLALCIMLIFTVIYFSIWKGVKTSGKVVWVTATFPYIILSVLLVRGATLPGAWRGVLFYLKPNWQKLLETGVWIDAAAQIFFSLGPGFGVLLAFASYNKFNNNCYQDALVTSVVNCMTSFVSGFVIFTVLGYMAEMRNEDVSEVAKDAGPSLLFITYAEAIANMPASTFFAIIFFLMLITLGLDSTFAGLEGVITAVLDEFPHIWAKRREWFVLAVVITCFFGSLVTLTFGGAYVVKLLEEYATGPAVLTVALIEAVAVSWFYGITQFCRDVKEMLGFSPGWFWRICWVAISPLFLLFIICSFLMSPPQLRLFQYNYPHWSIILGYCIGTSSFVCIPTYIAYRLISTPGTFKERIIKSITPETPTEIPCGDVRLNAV
T1 sequence (Q9GJT6 whole entry): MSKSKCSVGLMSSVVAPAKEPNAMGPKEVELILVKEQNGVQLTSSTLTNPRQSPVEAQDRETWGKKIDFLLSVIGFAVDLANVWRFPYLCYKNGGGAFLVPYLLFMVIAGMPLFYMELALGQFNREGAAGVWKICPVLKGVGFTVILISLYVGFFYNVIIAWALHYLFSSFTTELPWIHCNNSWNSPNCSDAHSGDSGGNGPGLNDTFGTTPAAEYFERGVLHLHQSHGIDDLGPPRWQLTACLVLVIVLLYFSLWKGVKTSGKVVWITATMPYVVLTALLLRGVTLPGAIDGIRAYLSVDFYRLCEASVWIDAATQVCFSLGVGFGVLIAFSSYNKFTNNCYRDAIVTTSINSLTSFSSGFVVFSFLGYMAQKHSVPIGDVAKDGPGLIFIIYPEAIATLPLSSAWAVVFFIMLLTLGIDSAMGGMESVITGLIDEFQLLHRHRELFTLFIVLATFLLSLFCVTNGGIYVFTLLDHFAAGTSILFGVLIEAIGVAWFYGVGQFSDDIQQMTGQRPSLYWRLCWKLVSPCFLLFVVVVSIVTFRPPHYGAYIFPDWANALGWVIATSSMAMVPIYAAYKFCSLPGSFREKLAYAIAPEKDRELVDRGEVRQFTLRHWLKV

Row | SMILES | SERT/DAT (dopamine transporter; Table 2) | IC50 (dopamine transporter; IC50 (nM) DAT, Table 2) [nM] | IC50 (serotonin transporter; [3]) [nM] | other results
1 | COC(=O)[C@@H]1[C@H]2[C@H](O)C[C@@H](C[C@H]1c1ccc(F)cc1)N2C [Compound 18c, 2β-Carbomethoxy-3α-(4-fluorophenyl)-7β-hydroxy-8-methyl-8-azabicyclo{3.2.1}octane] | >120 |  |  | IC50 (dopamine transporter; [1]): 110 nM; IC50 (serotonin transporter; [2]): > 20000 nM
2 | COC(=O)C1C(c2ccc(Cl)c(Cl)c2)CC2CCC1N2C (stereo not drawn) [Compound O-401, 2-carbomethoxy-3-(3,4-dichlorophenyl)-N -methyltropane] |  |  |  | IC50 (DAT): 1.09 nM
3 | COC(=O)C1C(c2ccc(Cl)c(Cl)c2)CC2CC(O)C1N2C (single isomer, unassigned) [(1S)-18a] |  | 0.76 | 1220 | 
4 | COC(=O)[C@H]1[C@@H](OC(=O)c2ccccc2)C[C@@H]2CC[C@H]1N2C [(1R)-(−)-cocaine] |  |  |  | binds at the dopamine transporter more potently than (1S)-(+)-cocaine (DAT): about 200 fold
5 | COC(=O)[C@@H]1[C@H]2[C@H](O)C[C@@H](C[C@H]1c1ccc(Cl)c(Cl)c1)N2C (relative stereo) [Compound 18a, 2β-Carbomethoxy-3α(3,4-dichlorophenyl)-7β-hydroxy-8-methyl-8-azabicyclo{3.2.1}octane] | 1,170 | 1.19 | 1390 | 
6 | COC(=O)C1C(c2ccc(Cl)c(Cl)c2)CC2CC(O)C1N2C (single isomer, unassigned) [(1R)-18a] | 11 | 482 | 5300 | 
7 | COC(=O)C1C(c2ccc3ccccc3c2)CC2C(O)CC1N2C (stereo not drawn) [Compound 17b, 2β-Carbomethoxy-3α-(2-naphthyl)-6β-hydroxy-8-methyl-8-azabicyclo{3.2.1}octane] | 6 |  |  | IC50 (dopamine transporter; [1]): 32 nM; IC50 (serotonin transporter; [2]): 180 nM
9 | COC(=O)[C@@H]1[C@H]2C[C@H](O)[C@@H](C[C@H]1c1ccccc1)N2C (relative stereo) [Compound 17d, 2β-Carbomethoxy-3α-phenyl-6β-hydroxy-8-methyl-8-azabicyclo{3.2.1}octane] | >3 | 3530 | > 10000 | 
10 | COC(=O)[C@@H]1[C@H]2[C@H](O)C[C@@H](C[C@H]1c1ccccc1)N2C (relative stereo) [Compound 18d, 2β-Carbomethoxy-3α-phenyl-7β-hydroxy-8-methyl-8-azabicyclo{3.2.1}octane] | >190 | 518 | > 100000 | 
11 | COC(=O)[C@@H]1[C@H]2CC[C@@H](C[C@H]1c1ccc(F)cc1)N2C (relative stereo) [Compound 16c] | 63 | 17.9 | 1130 | 
12 | COC(=O)[C@@H]1[C@H]2C[C@H](O)[C@@H](C[C@H]1c1ccc(F)cc1)N2C (relative stereo) [Compound 17c, 2βCarbomethoxy-3α-(4-fluorophenyl)-6β-hydroxy-8-methyl-8-azabicyclo{3.2.1}octane] | 8 | 739 | 5820 | 
13 | CCC(=O)C1C(c2ccc(Cl)c(Cl)c2)CC2CC(O)C1N2C (stereo not drawn) [Compound 26, 1-{3α-(3,4-Dichlorophenyl)-7β-hydroxy-8-methyl-8-azabicyclo{3.2.1}oct-2-yl}propan-1-one] |  |  |  | IC50 (dopamine transporter; Table 1, read-out: IC50 (nM) DAT): 1.1 nM; IC50 (serotonin transporter; Table 1, monkey caudate-putamen, read-out: IC50 (nM) SERT): 2520 nM
14 | COC(=O)C1C(c2ccc3ccccc3c2)CC2CC(O)C1N2C (stereo not drawn) [Compound 18b, 2β-Carbomethoxy-3α-(2-naphthyl)-7β-hydroxy-8-methyl-8-azabicyclo{3.2.1}octane] | 34 |  |  | IC50 (serotonin transporter; [2]): 94 nM
15 | COC(=O)[C@@H]1[C@H]2CC[C@@H](C[C@H]1c1ccc(Cl)c(Cl)c1)N2C [Compound 16a] | 73 | 0.38 | 27.7 | 
16 | COC(=O)[C@@H]1[C@H]2C[C@H](O)[C@@H](C[C@H]1c1ccc(Cl)c(Cl)c1)N2C (relative stereo) [Compound 17a, 2β-Carbomethoxy-3α-(3,4-dichlorophenyl) -6β-hydroxy-8-methyl-8-azabicyclo{3.2.1}octane] | 238 | 6.09 | 1450 | 

From patent publication US20030125352A1, “Therapeutic tropane compounds” (priority 2001, published 2003)
